Assay: Bubble cell test, corrosion rate by linear polarization resistance (LPR)
Details: 80° C., CO2 saturated 3% NaCl brine; 100 ppm active; about 15 hours after CI injection; versus uninhibited carbon steel electrode
Description: Examples were conducted to assess the corrosion inhibition of a saturated alkyl diquaternary compounds of structure (IIIa) as described above using a bubble cell test to assess corrosion performance using linear polarization resistance testing. The corrosion inhibitor (CI) was evaluated without combination of any other chemistries or formulation components.
The corrosion rate was measured by Linear Polarization Resistance (LPR) techniques. The working electrode used was carbon steel (C1018 grade). The counter and reference electrodes were both 1018 carbon steel. The electrodes were all cleaned and polished prior to testing.
The test conditions included: 80° C., CO2 saturated fluids with 3% NaCl brine (100% brine) with continuous CO2 sparge, atmospheric pressure. A pre-corrosion time (i.e. with no corrosion inhibitor) was carried out for about 3 hours before 500 ppm of a 20% active chemistry in solvent blend was added. This is equivalent to 100 ppm of the active chemistry being introduced into the test cell. The inhibited corrosion rate at about 15 hours after CI chemical injection was noted and a percentage inhibition determined by comparing with the corrosion rate of a carbon steel electrode under otherwise the same conditions in the absence of chemical corrosion inhibitor after the same time of exposure to the corrosive environment.

With `CCCCCCCCCCCCCCCCCC[N+](C)(C)CC(O)C[N+](CCO)(CCO)CCO` (stereo not shown) [CI Structure IIIa] the “% Protection” value was >99%.

From US20250075337A1, “SATURATED QUATERNARY AMMONIUM COMPOUNDS, GLUTARALDEHYDE, AND TETRAKIS(HYDROXYMETHYL)PHOSPHONIUM SULFATE FOR CORROSION INHIBITION, CLEANING, AND BIOCIDAL EFFICACY IN HYDROGEN SYSTEMS” (ChampionX LLC, priority 2023, published 2025)
